Values quoted from earlier work in paper PMC5404532, “Simplified Reversed Chloroquines To Overcome Malaria Resistance to Quinoline-Based Drugs” (Antimicrobial Agents and Chemotherapy, 2017).
Like-named read-outs stand apart in the source and are kept apart here.

Key:
P. falciparum 7G8 (CQR) = conditions: CQR 7G8, cited from earlier work
mouse spleen lymphocytes = conditions: cited from earlier work
P. falciparum D6 (CQS) = conditions: cited from earlier work
P. falciparum Dd2 (CQR) = conditions: cited from earlier work

Structure (SMILES)	IC50 (P. falciparum 7G8 (CQR); ref Burgess et al. (31)) [nM]	Cytotoxicity (mouse spleen lymphocytes; ref Burgess et al. (31)) [nM]	IC50 (P. falciparum D6 (CQS); ref Burgess et al. (31)) [nM]	IC50 (P. falciparum Dd2 (CQR); ref Burgess et al. (31)) [nM]	IC50 (P. falciparum 7G8 (CQR); ref Burgess et al. (33)) [nM]	Cytotoxicity (mouse spleen lymphocytes; ref Burgess et al. (33))	IC50 (P. falciparum D6 (CQS); ref Burgess et al. (33)) [nM]	IC50 (P. falciparum Dd2 (CQR); ref Burgess et al. (33)) [nM]
CN(CCCNc1ccnc2cc(Cl)ccc12)CCCN1c2ccccc2CCc2ccccc21 [Compound 1]	4	700	2.9	5.3				
Clc1ccc2c(NCCCN3CCN(C(c4ccccc4)c4ccccc4)CC3)ccnc2c1 [Compound 3]					11	1,100 nM	1.9	2.6
Clc1ccc2c(NCCCN3CCNCC3)ccnc2c1 [Compound 16]						23,000 nM	4.3	6.8
